# From patent US20160250142A1, “INHALED AEROSOLIZED IMMUNO-CHEMOTHERAPY FOR THE TREATEMENT OF MDR TB” (priority 2013, published 2016)
# Where “and” joins values, the source holds several entries; their conditions need not be identical. Equal entries are not always repeated. Where two headings read alike, the source gives them in different places.
# Experiments:
# [1] = tested on: TB (Mycobacterium tuberculosis); conditions: reported for reference only; metronidazole MIC not established for TB; cited from earlier work
# [2] = NGI impactor test of nebulized respiratory solutions (aerosol particle size); type: physicochemical; conditions: fractions by HPLC
# Experimental: FIG. 1. Graphical representation of the NGI impactor test for Metronidazole respiratory solution (8 mg/mL).
# FIG. 2. Graphical representation of the NGI impactor test for Amikacin respiratory solution (200 mg/mL).
# FIG. 3. Graphical representation of the NGI impactor test for Levofloxacin respiratory solution (250 mg/mL).
# The nebulization drug formulations were nebulized and passed through an NGI impactor (Westech Corporation). These experiments show the fraction of drug in various stages of the impactor (FIGS. 1-3). It was shown that significant amounts of the drug compounds were obtained at the different stages, which corresponds to the respirable fraction that would be deposited in the lungs. The drug fractions were analyzed by HPLC.
# [3] = type: in vivo, female C57BL/6 mice; conditions: number of animals
# Experimental: Detailed observations were recorded prior to dosing and prior to euthanasia.
# All animals survived to their scheduled euthanasia time point on Day 0 (1 hour or 8 hours post dosing). All animals were normal (no clinical abnormalities) prior to dosing on Day 0 and prior to euthanasia 1 hour or 8 hours post dosing.
# [4] = Plasma and lung drug levels in mice after MicroSprayer endotracheal delivery (LC/MS/MS); conditions: for concentration at 1 h / concentration at 8 h: female, C57BL/6, mouse; for Lung levels compared to plasma levels / Plasma and lung levels 8 hours post dose compared to 1 hour post dose: endotracheal delivery; for Lung Levels: 8 hour (Range): Table 14 summary, dose delivered 240/150/50 μg in 100 μL
# Experimental: Observations were taken at 1 and 8 hour time points within lung tissue as well as the plasma of individual animals.
# For microsprayer dosing via endotracheal administration, mice were anesthetized by Ketamine/Xylazine (K/X) sedation (50 mg/kg Ketamine and 5 mg/kg Xylazine) administered intraperitoneally (IP). […] A Bair Hugger warm air unit was used to keep animals warm during recovery from K/X anesthesia (i.e. after dosing).
# On Day 0, mice were endotracheally intubated with a MicroSprayer® Aerosolizer (Penn-Century™, Inc.; Wyndmoor, Pa.) and test articles were delivered in the airways at a dose volume of 100 μL/dose at various dose levels.
# Animals were used for collection of blood samples and the entire lung for plasma and drug level determinations. Each mouse was anesthetized with CO2/O2 and terminally bled via retro-orbital into tubes containing K2EDTA. Upon collection each blood sample was mixed by gentle inversion, placed on ice, and subsequently centrifuged to separate plasma. Plasma samples were processed on the day they were collected, or were snap frozen using liquid nitrogen and stored frozen (at or below −70° C.) until analyzed.
# Animals in Subgroup A were used for collection of blood samples for plasma drug level determinations at the 1 hour post dose time point following Day 0 dosing; samples were collected within ±3% of target time. Animals in Subgroup B were used for collection of blood samples for plasma drug level determinations at the 8 hour post dose time point following Day 0 dosing; samples were collected within ±3% of target time (Table 8).
# Immediately following each subgroups blood collection time point, each animal was euthanized using CO2 and the entire lung was collected for tissue drug level determinations (within 15 minutes after the blood sample), weighed, and snap-frozen. Lung samples were snap frozen using liquid nitrogen or dry ice and stored frozen (at or below −70° C.) until analyzed. […] Animals in Groups 1-3 had aerosol content (ng/mL), plasma content (ng/mL) and lung level (ng/g) assessed for parent using an appropriate LC/MS/MS method.
# [5] = Human IFN-γ levels in mouse lung and plasma after aerosol delivery (ELISA); type: in vivo, female C57BL/6 mice; conditions: for IFN-g Level in mouse plasma: plasma diluted 1:2, ELISA sensitivity <2 pg/mL; for IFN-g Level in lung homogenate: mouse lung homogenized in 10 mL buffer; for IFN-g Level in lung homogenate / ng of IFN-g per gm of tissue: individual animals; for ng of IFN-g per gm of tissue / ng of IFN-g per gm of tissue, Mean: mouse lung; for ng of IFN-g per gm of tissue, Mean: mean of 3
# Experimental: Actimmune® (IFN-γ; Interferon gamma-1b) was diluted in the dilution solution excipient as per manufacturer's directions. The contents of one (1) vial (100 μg/0.5 mL) were gently diluted to a final volume of 700 mL using the dilution solution excipient. This represented a 1:1400 dilution. Test articles A-C were supplied in a ready to use form and no additional formulations were required. All residual test articles were stored at room temperature (15-30° C.) or refrigerated (2-8° C.).
# [6] = lung, Lung levels 1 hour post dose (range), mice, endotracheal MicroSprayer, Subgroup A
# [7] = lung, Lung levels 8 hour post dose (range), mice, endotracheal MicroSprayer, Subgroup B
# [8] = plasma, Plasma levels 1 hour post dose (range), mice, endotracheal MicroSprayer, Subgroup A, 3 animals
# [9] = plasma, Plasma levels 8 hour post dose (range), mice, endotracheal MicroSprayer, Subgroup B, 3 animals
# [10] = mice, IT, 1 hr, individual animals
# [11] = mice, IT, 1 hr, individual animals, nominal dose 0.48/0.3/0.1 mg/animal (delivered about 50%)
# [12] = mice, IT, 8 hr, individual animals
# [13] = mice, IT, 8 hr, individual animals, nominal dose 0.48/0.3/0.1 mg/animal
# [14] = lung, Lung Concentration (μg/g) of Tissue, mice, IT, 1 hr, individual animals
# [15] = lung, Lung Concentration, mice, IT, 1 hr, individual animals
# [16] = plasma, Plasma Concentration, mice, IT, 1 hr, individual animals, nominal dose 0.48/0.3/0.1 mg/animal (delivered about 50%)
# [17] = plasma, Plasma Concentration, mice, IT, 8 hr, individual animals, nominal dose 0.48/0.3/0.1 mg/animal
# [18] = mice, endotracheal MicroSprayer, Subgroup B, 3 animals
Molecule,Reported MIC [1],Droplets produced on nebulization [2],"ANIMALS ALIVE ([3]; Day 0, 1 hr post dose)","ANIMALS NORMAL ([3]; Day 0, 1 hr post dose)","ANIMALS ALIVE ([3]; Day 0, 8 hr post dose)","ANIMALS NORMAL ([3]; Day 0, 8 hr post dose)","concentration at 1 h [4, 6] [ng/g]","concentration at 8 h [4, 7] [ng/g]","concentration at 1 h [4, 8] [ng/mL]","concentration at 8 h [4, 9] [ng/mL]","Lung Concentration [4, 10]","Lung Concentration (μg/g) of Tissue [4, 10]","Plasma Concentration [4, 11]","Lung Concentration [4, 12]","Plasma Concentration [4, 13]",Lung levels compared to plasma levels ([4]; mice),Plasma and lung levels 8 hours post dose compared to 1 hour post dose ([4]; mice),Lung Levels: 8 hour (Range) [4],"concentration at 1 h [4, 14] [ng/g]","concentration at 1 h [4, 15] [ng/g]",further results
NCC[C@H](O)C(=O)N[C@@H]1C[C@H](N)[C@@H](O[C@H]2O[C@H](CN)[C@@H](O)[C@H](O)[C@H]2O)[C@H](O)[C@H]1O[C@H]1O[C@H](CO)[C@@H](O)[C@H](N)[C@H]1O [Amikacin],0.5 μg/mL (500 ng/mL),droplets in the respirable range,6,3,3,3,3990 to 9480,351 to 3060,2300 to 7140,152 to 406,4830 ng/g and 9480 ng/g and 3990 ng/g,33.6 µg/g and 64.9 µg/g and 27.0 µg/g,7140 ng/mL and 4820 ng/mL and 2300 ng/mL,3060 ng/g and 443 ng/g and 351 ng/g,406 ng/mL and 156 ng/mL and 152 ng/mL,higher,decreased,,,,"Lung Concentration (μg/g) of Tissue [4, 12]: 19.0 µg/g and 3.05 µg/g and 1.99 µg/g"
C[C@H]1COc2c(N3CCN(C)CC3)c(F)cc3c(=O)c(C(=O)O)cn1c23 [Levofloxacin],,,6,3,3,3,1610 to 2270,1200,534 to 815,53,2270 ng/g and 1610 ng/g,16.9 µg/g and 10.4 µg/g,815 ng/mL and 534 ng/mL,BQL,BQL,increased,decreased,7590 ng/g - ng/g of lung tissue,13800,2140,"concentration at 8 h ([4]; lung, Lung Concentration (μg/g) of Tissue, mice, IT, 8 hr, individual animals): 7560 ng/g; concentration at 8 h ([4]; lung, Lung Concentration, mice, IT, 8 hr, individual animals): 1200 ng/g; concentration at 1 h [4, 16]: 556 ng/mL; concentration at 8 h [4, 17]: 53 ng/mL; Plasma levels 8 hour post dose (range) [4, 18]: 53.0 ng/mL; Plasma levels 8 hour post dose (range) ([4]; mice, endotracheal MicroSprayer, Subgroup B, 3 animals, listed as LEVOFLOXACIN): 53 ng/mL -"
Cc1ncc([N+](=O)[O-])n1CCO [Metronidazole],"250 μg/mL in (250,000 ng/mL)",droplets in the respirable range,6,3,3,3,1070 to 1640,,1670 to 2290,42.3,1070 ng/g and 1270 ng/g,6.50 µg/g and 8.27 µg/g,1670 ng/mL and 1880 ng/mL,BQL,BQL,increased,decreased,Not detected,11700,1640,"concentration at 1 h [4, 16]: 2290 ng/mL; concentration at 8 h [4, 17]: 42.3 ng/mL; Lung levels 8 hour post dose (range) ([4]; mice, endotracheal MicroSprayer, Subgroup B): not detectable; Plasma levels 8 hour post dose (range) [4, 18]: 42.3 ng/mL -"
"Actimmune: Actimmune® (IFN-γ; Interferon gamma-1b), 100 μg/0.5 mL vial diluted 1:1400 (protein, UniProt P01579 24-161, looked up) Interferon gamma: QDPYVKEAENLKKYFNAGHSDVADNGTLFLGILKNWKEESDRKIMQSQIVSFYFKLFKNFKDDQSIQKSVETIKEDMNVKFFNSNKKKRDDFEKLTNYSVTDLNVQRKAIHELIQVMAELSPAAKTGKRKRSQMLFRG",,,6,3,3,3,,,,,,,,,,,,,,,"IFN-g Level in mouse plasma ([5]; 1 hr post dose): not detectable and below detectable levels (BDL) and BDL^a and BDL; IFN-g Level in mouse plasma ([5]; 1 hr post dose, listed as INTERFERON-gamma): Not Detectable; IFN-g Level in mouse plasma ([5]; 8 hr post dose): not detectable and below detectable levels (BDL) and BDL; IFN-g Level in mouse plasma ([5]; 8 hr post dose, listed as INTERFERON-gamma): Not Detectable; Plasma and lung levels 8 hours post dose compared to 1 hour post dose ([5]; mice, endotracheal delivery): decreased; IFN-g Level in lung homogenate ([5]; 1 hr post dose): 1732.7 pg/mL and 1248.4 pg/mL and 1109.4 pg/mL; IFN-g Level in lung homogenate ([5]; 8 hr post dose): 1006.2 pg/mL and 1578.0 pg/mL and 1307.7 pg/mL; ng of IFN-g per gm of tissue ([5]; 1 hr post dose): 116.8 ng per gm of tissue and 87.9 ng per gm of tissue and 75.4 ng per gm of tissue; ng of IFN-g per gm of tissue, Mean ([5]; 1 hr post dose): 93.3 ng per gm of tissue; ng of IFN-g per gm of tissue ([5]; 8 hr post dose): 58.3 ng per gm of tissue and 72.2 ng per gm of tissue and 102.6 ng per gm of tissue; ng of IFN-g per gm of tissue, Mean ([5]; 8 hr post dose): 77.7 ng per gm of tissue"
